Experimental data reported in paper PMC9856672, “SGC-CAMKK2-1: A Chemical Probe for CAMKK2” (Cells, 2023).

How the values were obtained:
TGFBR1 = molecular target: T1, TGFBR1 (Homo sapiens, UniProt P36897); experiment: DiscoverX KINOMEscan binding assay at 1 μM, TGFBR1; conditions: Compound Concentration 1000 nM, read-out: Percent Control
T1 construct: purchased Eurofins DiscoverX KINOMEscan
Description: (§1) Supplement cells-12-00287-s001.zip/File S2. KinomeScan data for the CAMKK2 probe and negative control.xlsx, sheet "SGC-CAMKK2-1" | column: Percent Control

MLK3 = molecular target: T2, MLK3 (Homo sapiens, UniProt Q16584); experiment: KINOMEscan 1 μM, MLK3; assay type: binding; conditions: 1000 nM; Entrez MAP3K11; read-out: Percent Control
T2 construct: purchased Eurofins DiscoverX KINOMEscan
Description: as §1

ERK5 = molecular target: T3, ERK5 (Homo sapiens, UniProt Q13164); experiment: KINOMEscan 1 μM, ERK5; assay type: binding; conditions: 1000 nM; Entrez MAPK7; read-out: Percent Control
T3 construct: purchased Eurofins DiscoverX KINOMEscan
Description: as §1

SYK = molecular target: T4, SYK (Homo sapiens, UniProt P43405); experiment: KINOMEscan 1 μM, SYK; assay type: binding; conditions: 1000 nM; Entrez SYK; read-out: Percent Control
T4 construct: purchased Eurofins DiscoverX KINOMEscan
Description: as §1

FRK = molecular target: T5, FRK (Homo sapiens, UniProt P42685); experiment: KINOMEscan 1 μM, FRK; assay type: binding; conditions: 1000 nM; Entrez FRK; read-out: Percent Control
T5 construct: purchased Eurofins DiscoverX KINOMEscan
T5 sequence (P42685 whole entry): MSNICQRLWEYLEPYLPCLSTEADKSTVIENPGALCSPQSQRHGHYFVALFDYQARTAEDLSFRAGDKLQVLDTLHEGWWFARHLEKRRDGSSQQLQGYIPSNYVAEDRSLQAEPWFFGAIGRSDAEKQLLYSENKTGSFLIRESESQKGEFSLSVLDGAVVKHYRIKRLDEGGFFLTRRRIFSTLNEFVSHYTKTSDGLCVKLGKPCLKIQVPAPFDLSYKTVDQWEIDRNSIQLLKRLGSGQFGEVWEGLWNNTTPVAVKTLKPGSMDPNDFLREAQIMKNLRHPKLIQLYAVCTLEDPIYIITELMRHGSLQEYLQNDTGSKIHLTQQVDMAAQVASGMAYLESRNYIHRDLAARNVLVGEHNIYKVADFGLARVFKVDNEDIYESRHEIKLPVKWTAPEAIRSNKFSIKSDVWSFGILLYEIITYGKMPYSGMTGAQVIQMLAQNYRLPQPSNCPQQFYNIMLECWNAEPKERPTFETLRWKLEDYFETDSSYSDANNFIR
Description: as §1

CDC2L1 = molecular target: T6, CDC2L1 (Homo sapiens, UniProt P21127); experiment: KINOMEscan 1 μM, CDC2L1; assay type: binding; conditions: 1000 nM; Entrez CDK11B; read-out: Percent Control
T6 construct: purchased Eurofins DiscoverX KINOMEscan
Description: as §1

[1] = molecular target: T7, ABL1(F317L)-nonphosphorylated (Homo sapiens, UniProt P00519, F317L); experiment: KINOMEscan 1 μM, ABL1(F317L)-nonphosphorylated; assay type: binding; conditions: 1000 nM; Entrez ABL1; read-out: Percent Control
T7 construct: purchased Eurofins DiscoverX KINOMEscan
Description: as §1

FLT3 = molecular target: T8, FLT3 (Homo sapiens, UniProt P36888); experiment: KINOMEscan 1 μM, FLT3; assay type: binding; conditions: 1000 nM; Entrez FLT3; read-out: Percent Control
T8 construct: purchased Eurofins DiscoverX KINOMEscan
Description: as §1

RIPK1 = molecular target: T9, RIPK1 (Homo sapiens, UniProt Q13546); experiment: KINOMEscan 1 μM, RIPK1; assay type: binding; conditions: 1000 nM; Entrez RIPK1; read-out: Percent Control
T9 construct: purchased Eurofins DiscoverX KINOMEscan
Description: as §1

ALK(L1196M) = molecular target: T10, ALK(L1196M) (Homo sapiens, UniProt Q9UM73, L1196M); experiment: KINOMEscan 1 μM, ALK(L1196M); assay type: binding; conditions: 1000 nM; Entrez ALK; read-out: Percent Control
T10 construct: purchased Eurofins DiscoverX KINOMEscan
T10 sequence (Q9UM73 19-1620 L1196M): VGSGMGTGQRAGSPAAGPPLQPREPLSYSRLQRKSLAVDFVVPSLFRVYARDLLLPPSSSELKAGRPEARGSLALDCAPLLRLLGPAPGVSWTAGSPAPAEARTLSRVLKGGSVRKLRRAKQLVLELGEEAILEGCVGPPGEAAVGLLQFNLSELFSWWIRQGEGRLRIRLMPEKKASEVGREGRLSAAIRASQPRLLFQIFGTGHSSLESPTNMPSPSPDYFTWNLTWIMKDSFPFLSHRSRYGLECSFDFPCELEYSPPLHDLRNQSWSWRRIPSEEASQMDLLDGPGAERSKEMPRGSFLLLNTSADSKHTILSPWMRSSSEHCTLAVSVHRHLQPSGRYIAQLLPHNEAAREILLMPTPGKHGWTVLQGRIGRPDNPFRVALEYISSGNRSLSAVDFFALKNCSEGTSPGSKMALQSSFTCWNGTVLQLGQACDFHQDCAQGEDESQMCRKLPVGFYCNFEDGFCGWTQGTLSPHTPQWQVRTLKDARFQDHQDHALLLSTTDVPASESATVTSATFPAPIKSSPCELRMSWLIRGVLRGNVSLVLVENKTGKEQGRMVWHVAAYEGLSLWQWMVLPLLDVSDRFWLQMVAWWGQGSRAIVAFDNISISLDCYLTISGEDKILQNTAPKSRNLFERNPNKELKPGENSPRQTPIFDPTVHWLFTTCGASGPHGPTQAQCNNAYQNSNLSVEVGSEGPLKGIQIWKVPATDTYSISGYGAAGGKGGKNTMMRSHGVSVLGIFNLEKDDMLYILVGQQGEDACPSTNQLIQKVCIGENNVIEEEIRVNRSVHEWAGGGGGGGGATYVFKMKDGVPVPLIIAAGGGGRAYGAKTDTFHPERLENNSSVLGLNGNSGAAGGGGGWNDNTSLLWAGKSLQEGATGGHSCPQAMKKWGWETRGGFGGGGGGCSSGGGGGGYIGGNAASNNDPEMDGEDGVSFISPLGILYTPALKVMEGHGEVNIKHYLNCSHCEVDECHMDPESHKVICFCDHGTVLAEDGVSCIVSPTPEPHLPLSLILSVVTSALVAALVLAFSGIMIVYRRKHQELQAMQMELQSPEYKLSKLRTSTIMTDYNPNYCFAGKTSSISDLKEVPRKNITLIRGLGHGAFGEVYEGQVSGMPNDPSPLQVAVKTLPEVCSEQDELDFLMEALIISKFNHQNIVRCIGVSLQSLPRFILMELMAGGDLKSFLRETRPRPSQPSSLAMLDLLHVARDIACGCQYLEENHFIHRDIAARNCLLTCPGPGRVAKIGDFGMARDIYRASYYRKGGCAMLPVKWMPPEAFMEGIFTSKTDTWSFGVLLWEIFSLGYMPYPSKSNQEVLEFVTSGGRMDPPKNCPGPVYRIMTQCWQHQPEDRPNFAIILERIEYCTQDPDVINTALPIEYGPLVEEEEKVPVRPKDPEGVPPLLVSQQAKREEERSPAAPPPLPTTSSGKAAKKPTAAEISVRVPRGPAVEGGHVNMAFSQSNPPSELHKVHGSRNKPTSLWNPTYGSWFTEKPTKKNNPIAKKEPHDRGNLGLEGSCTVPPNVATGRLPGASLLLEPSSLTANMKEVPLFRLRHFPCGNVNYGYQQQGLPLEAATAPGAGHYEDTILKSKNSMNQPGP
Description: as §1

SGK3 = molecular target: T11, SGK3 (Homo sapiens, UniProt Q96BR1); experiment: DiscoverX KINOMEscan binding assay at 1 μM, SGK3; conditions: Compound Concentration 1000 nM, read-out: Percent Control
T11 construct: purchased Eurofins DiscoverX KINOMEscan
T11 sequence (Q96BR1 whole entry): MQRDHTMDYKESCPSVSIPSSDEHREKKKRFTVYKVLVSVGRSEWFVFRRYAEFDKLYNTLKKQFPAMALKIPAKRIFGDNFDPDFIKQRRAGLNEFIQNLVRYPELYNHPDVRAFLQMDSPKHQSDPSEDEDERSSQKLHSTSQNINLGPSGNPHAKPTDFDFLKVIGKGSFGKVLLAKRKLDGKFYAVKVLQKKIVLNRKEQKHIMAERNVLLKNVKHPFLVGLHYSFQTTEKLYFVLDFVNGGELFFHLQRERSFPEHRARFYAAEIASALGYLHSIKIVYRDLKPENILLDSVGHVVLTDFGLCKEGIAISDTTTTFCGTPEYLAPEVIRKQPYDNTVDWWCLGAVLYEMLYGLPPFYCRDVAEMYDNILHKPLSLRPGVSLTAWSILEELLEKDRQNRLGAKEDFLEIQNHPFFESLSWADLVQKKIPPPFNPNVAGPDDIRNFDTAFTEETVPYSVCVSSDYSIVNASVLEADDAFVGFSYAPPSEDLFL
Description: as §1

TAK1 = molecular target: T12, TAK1 (Homo sapiens, UniProt O43318); experiment: KINOMEscan 1 μM, TAK1; assay type: binding; conditions: 1000 nM; Entrez MAP3K7; read-out: Percent Control
T12 construct: purchased Eurofins DiscoverX KINOMEscan
Description: as §1

ALK(C1156Y) = molecular target: T13, ALK(C1156Y) (Homo sapiens, UniProt Q9UM73, C1156Y); experiment: KINOMEscan 1 μM, ALK(C1156Y); assay type: binding; conditions: 1000 nM; Entrez ALK; read-out: Percent Control
T13 construct: purchased Eurofins DiscoverX KINOMEscan
T13 sequence (Q9UM73 19-1620 C1156Y): as the sequence (Q9UM73 19-1620 L1196M) above, with C1138Y, M1178L counted along it
Description: as §1

PIP5K2B = molecular target: T14, PIP5K2B (Homo sapiens, UniProt P78356); experiment: DiscoverX KINOMEscan binding assay at 1 μM, PIP5K2B; conditions: PIP5K2B (PIP4K2B); Compound Concentration 1000 nM; read-out: Percent Control
T14 construct: purchased Eurofins DiscoverX KINOMEscan
Description: as §1

EPHA5 = molecular target: T15, EPHA5 (Homo sapiens, UniProt P54756); experiment: KINOMEscan 1 μM, EPHA5; assay type: binding; conditions: 1000 nM; Entrez EPHA5; read-out: Percent Control
T15 construct: purchased Eurofins DiscoverX KINOMEscan
T15 sequence (P54756 25-1037): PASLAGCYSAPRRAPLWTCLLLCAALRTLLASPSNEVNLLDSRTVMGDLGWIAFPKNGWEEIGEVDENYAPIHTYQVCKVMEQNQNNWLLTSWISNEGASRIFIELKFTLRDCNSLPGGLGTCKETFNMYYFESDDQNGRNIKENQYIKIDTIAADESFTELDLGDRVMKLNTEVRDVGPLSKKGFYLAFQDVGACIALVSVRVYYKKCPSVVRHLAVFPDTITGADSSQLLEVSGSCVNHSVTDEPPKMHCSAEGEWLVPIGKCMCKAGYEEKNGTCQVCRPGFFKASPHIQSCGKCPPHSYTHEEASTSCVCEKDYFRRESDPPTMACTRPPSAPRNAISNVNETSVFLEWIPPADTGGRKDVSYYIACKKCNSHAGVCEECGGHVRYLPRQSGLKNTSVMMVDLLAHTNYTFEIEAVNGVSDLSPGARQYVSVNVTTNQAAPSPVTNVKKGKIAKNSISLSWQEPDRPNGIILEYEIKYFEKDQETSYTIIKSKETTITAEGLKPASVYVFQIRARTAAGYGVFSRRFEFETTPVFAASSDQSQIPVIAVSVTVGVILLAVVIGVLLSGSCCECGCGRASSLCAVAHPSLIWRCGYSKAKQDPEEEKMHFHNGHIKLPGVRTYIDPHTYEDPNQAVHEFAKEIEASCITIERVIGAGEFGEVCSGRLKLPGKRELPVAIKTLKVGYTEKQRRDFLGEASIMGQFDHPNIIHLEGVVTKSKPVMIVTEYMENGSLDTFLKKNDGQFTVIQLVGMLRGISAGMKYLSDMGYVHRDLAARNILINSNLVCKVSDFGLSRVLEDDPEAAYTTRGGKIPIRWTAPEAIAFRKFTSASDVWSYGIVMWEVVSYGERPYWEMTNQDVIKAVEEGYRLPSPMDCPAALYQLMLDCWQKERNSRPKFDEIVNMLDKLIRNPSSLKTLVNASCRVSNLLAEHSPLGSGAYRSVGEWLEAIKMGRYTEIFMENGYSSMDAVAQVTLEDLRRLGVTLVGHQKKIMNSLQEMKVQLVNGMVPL
Description: as §1

TSSK1B = molecular target: T16, TSSK1B (Homo sapiens, UniProt Q9BXA7); experiment: DiscoverX KINOMEscan binding assay at 1 μM, TSSK1B; conditions: Compound Concentration 1000 nM, read-out: Percent Control
T16 construct: purchased Eurofins DiscoverX KINOMEscan
Description: as §1

KIT(D816H) = molecular target: T17, KIT(D816H) (Homo sapiens, UniProt P10721, D816H); experiment: KINOMEscan 1 μM, KIT(D816H); assay type: binding; conditions: 1000 nM; Entrez KIT; read-out: Percent Control
T17 construct: purchased Eurofins DiscoverX KINOMEscan
Description: as §1

IKK-alpha = molecular target: T18, IKK-alpha (Homo sapiens, UniProt O15111); experiment: KINOMEscan 1 μM, IKK-alpha; assay type: binding; conditions: 1000 nM; Entrez CHUK; read-out: Percent Control
T18 construct: purchased Eurofins DiscoverX KINOMEscan
Description: as §1

PIK3CA = molecular target: T19, PIK3CA (Homo sapiens, UniProt P42336); experiment: DiscoverX KINOMEscan binding assay at 1 μM, PIK3CA; conditions: Compound Concentration 1000 nM, read-out: Percent Control
T19 construct: purchased Eurofins DiscoverX KINOMEscan
Description: as §1

DDR1 = molecular target: T20, DDR1 (Homo sapiens, UniProt Q08345); experiment: KINOMEscan at 1 μM, DDR1; assay type: binding; conditions: 1000 nM, read-out: Percent Control
T20 construct: purchased Eurofins DiscoverX KINOMEscan
Description: (§2) Supplement cells-12-00287-s001.zip/File S2. KinomeScan data for the CAMKK2 probe and negative control.xlsx, sheet "SGC-CAMKK2-1N" | column: Percent Control

MRCKB = molecular target: T21, MRCKB (Homo sapiens, UniProt Q9Y5S2); experiment: KINOMEscan binding assay at 1 μM, MRCKB; conditions: Compound Concentration 1000 nM; read-out: Percent Control
T21 construct: purchased Eurofins DiscoverX KINOMEscan
Description: as §2

PCTK2 = molecular target: T22, PCTK2 (Homo sapiens, UniProt Q00537); experiment: KINOMEscan at 1 μM, PCTK2; assay type: binding; conditions: 1000 nM, read-out: Percent Control
T22 construct: purchased Eurofins DiscoverX KINOMEscan
Description: as §2

PLK1 = molecular target: T23, PLK1 (Homo sapiens, UniProt P53350); experiment: KINOMEscan at 1 μM, PLK1; assay type: binding; conditions: 1000 nM, read-out: Percent Control
T23 construct: purchased Eurofins DiscoverX KINOMEscan
Description: as §2

EGFR(E746-A750del) = molecular target: T24, EGFR(E746-A750del) (Homo sapiens, UniProt P00533, DEL746-750); experiment: KINOMEscan at 1 μM, EGFR(E746-A750del); assay type: binding; conditions: 1000 nM, read-out: Percent Control
T24 construct: purchased Eurofins DiscoverX KINOMEscan
Description: as §2

PIP5K1A = molecular target: T25, PIP5K1A (Homo sapiens, UniProt Q99755); experiment: KINOMEscan at 1 μM, PIP5K1A; assay type: binding; conditions: 1000 nM, read-out: Percent Control
T25 construct: purchased Eurofins DiscoverX KINOMEscan
Description: as §2

BRAF(V600E) = molecular target: T26, BRAF(V600E) (Homo sapiens, UniProt P15056, V600E); experiment: KINOMEscan at 1 μM, BRAF(V600E); assay type: binding; conditions: 1000 nM, read-out: Percent Control
T26 construct: purchased Eurofins DiscoverX KINOMEscan
T26 sequence (P15056 whole entry V600E): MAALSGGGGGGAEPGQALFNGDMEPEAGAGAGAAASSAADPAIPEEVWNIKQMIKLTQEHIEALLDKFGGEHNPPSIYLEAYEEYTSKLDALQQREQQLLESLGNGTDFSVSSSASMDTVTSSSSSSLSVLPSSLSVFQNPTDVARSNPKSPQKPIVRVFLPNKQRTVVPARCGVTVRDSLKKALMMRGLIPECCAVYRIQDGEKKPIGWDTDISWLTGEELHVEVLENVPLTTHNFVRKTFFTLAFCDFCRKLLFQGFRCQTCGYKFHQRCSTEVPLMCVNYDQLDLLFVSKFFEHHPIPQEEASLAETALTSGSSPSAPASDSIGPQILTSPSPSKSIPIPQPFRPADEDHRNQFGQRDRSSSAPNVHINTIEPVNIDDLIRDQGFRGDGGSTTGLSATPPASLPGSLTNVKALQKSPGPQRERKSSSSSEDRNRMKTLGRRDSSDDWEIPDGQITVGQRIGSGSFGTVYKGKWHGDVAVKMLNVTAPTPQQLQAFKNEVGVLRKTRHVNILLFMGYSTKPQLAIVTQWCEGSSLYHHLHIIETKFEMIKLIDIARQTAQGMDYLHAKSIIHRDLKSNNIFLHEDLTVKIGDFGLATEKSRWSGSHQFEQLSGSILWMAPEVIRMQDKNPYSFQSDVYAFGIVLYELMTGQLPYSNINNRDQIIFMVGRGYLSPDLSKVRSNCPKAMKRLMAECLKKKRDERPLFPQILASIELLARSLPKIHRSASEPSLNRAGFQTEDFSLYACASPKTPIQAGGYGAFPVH
Description: as §2

PAK4 = molecular target: T27, PAK4 (Homo sapiens, UniProt O96013); experiment: KINOMEscan at 1 μM, PAK4; assay type: binding; conditions: 1000 nM, read-out: Percent Control
T27 construct: purchased Eurofins DiscoverX KINOMEscan
T27 sequence (O96013 whole entry): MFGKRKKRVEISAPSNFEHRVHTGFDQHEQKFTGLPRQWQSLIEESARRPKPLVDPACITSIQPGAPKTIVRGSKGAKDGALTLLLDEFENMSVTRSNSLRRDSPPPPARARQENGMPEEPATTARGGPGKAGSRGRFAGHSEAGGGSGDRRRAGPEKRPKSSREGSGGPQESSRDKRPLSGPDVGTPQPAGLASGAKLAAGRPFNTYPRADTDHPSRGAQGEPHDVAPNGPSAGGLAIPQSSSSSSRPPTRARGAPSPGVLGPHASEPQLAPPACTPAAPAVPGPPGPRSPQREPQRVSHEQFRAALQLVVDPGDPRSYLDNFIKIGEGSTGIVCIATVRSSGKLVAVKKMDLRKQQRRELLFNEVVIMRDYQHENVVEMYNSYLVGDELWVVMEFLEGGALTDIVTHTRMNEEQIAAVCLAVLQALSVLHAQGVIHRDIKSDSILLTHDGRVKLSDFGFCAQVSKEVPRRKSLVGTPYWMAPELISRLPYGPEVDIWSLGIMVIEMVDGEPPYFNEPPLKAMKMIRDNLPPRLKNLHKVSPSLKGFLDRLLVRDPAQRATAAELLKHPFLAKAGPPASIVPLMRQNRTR
Description: as §2

[2] = molecular target: T28, EGFR(L747-S752del, P753S) (Homo sapiens, UniProt P00533, DEL747-752/P753S); experiment: KINOMEscan binding assay at 1 μM, EGFR(L747-S752del, P753S); conditions: Compound Concentration 1000 nM; read-out: Percent Control
T28 construct: purchased Eurofins DiscoverX KINOMEscan
Description: as §2

[3] = molecular target: T29, TYK2(JH1domain-catalytic) (Homo sapiens, UniProt P29597); experiment: KINOMEscan at 1 μM, TYK2(JH1domain-catalytic); assay type: binding; conditions: 1000 nM, read-out: Percent Control
T29 construct: TYK2(JH1domain-catalytic); purchased Eurofins DiscoverX KINOMEscan
Description: as §2

PIK3C2B = molecular target: T30, PIK3C2B (Homo sapiens, UniProt O00750); experiment: KINOMEscan at 1 μM, PIK3C2B; assay type: binding; conditions: 1000 nM, read-out: Percent Control
T30 construct: purchased Eurofins DiscoverX KINOMEscan
Description: as §2

PRKCD = molecular target: T31, PRKCD (Homo sapiens, UniProt Q05655); experiment: KINOMEscan binding assay at 1 μM, PRKCD; conditions: Compound Concentration 1000 nM; read-out: Percent Control
T31 construct: purchased Eurofins DiscoverX KINOMEscan
Description: as §2

PRKD1 = molecular target: T32, PRKD1 (Homo sapiens, UniProt Q15139); experiment: KINOMEscan binding assay at 1 μM, PRKD1; conditions: Compound Concentration 1000 nM; read-out: Percent Control
T32 construct: purchased Eurofins DiscoverX KINOMEscan
Description: as §2

EGFR = molecular target: T33, EGFR (Homo sapiens, UniProt P00533); experiment: KINOMEscan at 1 μM, EGFR; assay type: binding; conditions: 1000 nM, read-out: Percent Control
T33 construct: purchased Eurofins DiscoverX KINOMEscan
Description: as §2

Cc1cccc(-c2cnc3occ(-c4ccc(C(=O)O)c(C5CCCC5)c4)c3c2)c1 [SGC-CAMKK2-1 (YL-36)]
remaining binding at 1 µM (TGFBR1): 100% | remaining binding at 1 µM (MLK3): 89% | remaining binding at 1 µM (ERK5): 100% | remaining binding at 1 µM (SYK): 85% | remaining binding at 1 µM (FRK): 100% | remaining binding at 1 µM (CDC2L1): 93% | remaining binding at 1 µM [1]: 71% | remaining binding at 1 µM (FLT3): 80% | remaining binding at 1 µM (RIPK1): 93% | remaining binding at 1 µM (ALK(L1196M)): 96% | remaining binding at 1 µM (SGK3): 100% | remaining binding at 1 µM (TAK1): 91% | remaining binding at 1 µM (ALK(C1156Y)): 100% | remaining binding at 1 µM (PIP5K2B): 100% | remaining binding at 1 µM (EPHA5): 100% | remaining binding at 1 µM (TSSK1B): 100% | remaining binding at 1 µM (KIT(D816H)): 87% | remaining binding at 1 µM (IKK-alpha): 100% | remaining binding at 1 µM (PIK3CA): 100%

O=C(O)c1ccc(-c2coc3ncc(-c4ccccc4)cc23)cc1Cl [SGC-CAMKK2-1N (UNC-YL-83)]
remaining binding at 1 µM (DDR1): 93% | remaining binding at 1 µM (MRCKB): 100% | remaining binding at 1 µM (PCTK2): 81% | remaining binding at 1 µM (PLK1): 79% | remaining binding at 1 µM (EGFR(E746-A750del)): 100% | remaining binding at 1 µM (PIP5K1A): 87% | remaining binding at 1 µM (BRAF(V600E)): 87% | remaining binding at 1 µM (PAK4): 82% | remaining binding at 1 µM [2]: 100% | remaining binding at 1 µM [3]: 89% | remaining binding at 1 µM (PIK3C2B): 91% | remaining binding at 1 µM (PRKCD): 100% | remaining binding at 1 µM (PRKD1): 100% | remaining binding at 1 µM (EGFR): 100%
